# Laboratory results: US20250171495A1, “MUTLI-TARGETED SERINE PROTEASE INHIBITORS FOR TREATMENT OF CANCER AND VIRAL INFECTION” (Washington University, priority 2023, published 2025)
# Where two headings read alike, the source gives them in different places. Numbered stars: 1 amine (or outer) side, 2 acyl side, 3 side chain; on linkers, the order of the positions; unused ones are H or OH. Square brackets hold non-standard residues; d marks the D form. Peptide text beside a SMILES is read from it. X1 = N=C(N)NCCC[C@H](N[*:1])C(=O)c1nc2ccc(C(=O)[*:2])cc2s1
# How the values were obtained:
# Type in all cases: biochemical
# matriptase = molecular target: T1, matriptase (Homo sapiens, UniProt Q9Y5Y6); assay: Fluorogenic kinetic enzyme inhibitor assay, matriptase
# T1 construct: purchased R&D Systems 3946-SEB-010
# T1 sequence (Q9Y5Y6 615-855 limits assumed): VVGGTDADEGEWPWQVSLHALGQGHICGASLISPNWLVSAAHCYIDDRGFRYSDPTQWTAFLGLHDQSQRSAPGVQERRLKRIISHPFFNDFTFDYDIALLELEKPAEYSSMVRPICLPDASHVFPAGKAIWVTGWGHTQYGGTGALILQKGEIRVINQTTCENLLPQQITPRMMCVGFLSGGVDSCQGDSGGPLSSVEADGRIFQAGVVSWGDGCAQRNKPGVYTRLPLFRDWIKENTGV
# hepsin = molecular target: T2, hepsin (Homo sapiens, UniProt P05981); assay: Fluorogenic kinetic enzyme inhibitor assay, hepsin
# T2 construct: purchased R&D Systems 4776-SE-010
# HGFA = molecular target: T3, HGFA (Homo sapiens, UniProt Q04756); assay: Fluorogenic kinetic enzyme inhibitor assay, HGFA
# T3 construct: purchased R&D Systems 1514-SE-010
# T3 sequence (Q04756 408-655 limits assumed): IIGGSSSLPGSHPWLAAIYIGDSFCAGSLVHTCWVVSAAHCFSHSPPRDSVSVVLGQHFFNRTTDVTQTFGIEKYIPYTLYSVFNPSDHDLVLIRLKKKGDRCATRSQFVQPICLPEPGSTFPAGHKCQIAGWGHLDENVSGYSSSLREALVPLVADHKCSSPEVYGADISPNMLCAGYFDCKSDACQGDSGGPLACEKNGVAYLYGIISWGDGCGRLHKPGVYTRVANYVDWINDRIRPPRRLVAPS
# T3 sequence (Q04756 373-407 partner limits assumed): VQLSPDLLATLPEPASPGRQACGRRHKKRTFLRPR
# Thrombin = Thrombin (Homo sapiens, UniProt P00734); assay: Fluorogenic assay, thrombin
# Factor Xa = molecular target: T4, Factor Xa (Homo sapiens, UniProt P00742); assay: Fluorogenic assay, Factor Xa; conditions: read-out: Factor Xa IC50
# T4 construct: TMPRSS2; Matriptase; Hepsin; HGFA; Thrombin; Factor Xa
# TMPRSS2 = TMPRSS2 (Homo sapiens, UniProt O15393); assay: Fluorogenic kinetic enzyme inhibitor assay, TMPRSS2; parameters: purchased Cusabio Technology CSB-YP023924HU
# [1] = 30 min incubation, Boc-QAR-AMC at Km, read-out: Hepsin IC50
# [2] = 30 min incubation, Boc-QLR-AMC at Km, read-out: HGFA IC50
# [3] = 30 min incubation, Boc-QAR-AMC at Km, read-out: TMPRSS2 IC50
# T2 sequence (P05981 163-417 limits assumed): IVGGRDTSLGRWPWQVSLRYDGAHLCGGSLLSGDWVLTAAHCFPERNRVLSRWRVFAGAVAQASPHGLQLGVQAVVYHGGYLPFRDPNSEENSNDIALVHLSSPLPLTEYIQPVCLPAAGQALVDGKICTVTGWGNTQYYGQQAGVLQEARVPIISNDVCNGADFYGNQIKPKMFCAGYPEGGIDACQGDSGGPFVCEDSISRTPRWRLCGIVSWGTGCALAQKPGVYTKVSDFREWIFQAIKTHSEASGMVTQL
# T2 sequence (P05981 1-162 partner limits assumed): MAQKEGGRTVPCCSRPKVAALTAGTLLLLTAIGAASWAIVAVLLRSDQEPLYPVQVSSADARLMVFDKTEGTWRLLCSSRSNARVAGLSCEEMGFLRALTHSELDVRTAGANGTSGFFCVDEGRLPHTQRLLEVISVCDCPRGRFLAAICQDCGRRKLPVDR
# Sequence of TMPRSS2 (O15393 106-492 limits assumed): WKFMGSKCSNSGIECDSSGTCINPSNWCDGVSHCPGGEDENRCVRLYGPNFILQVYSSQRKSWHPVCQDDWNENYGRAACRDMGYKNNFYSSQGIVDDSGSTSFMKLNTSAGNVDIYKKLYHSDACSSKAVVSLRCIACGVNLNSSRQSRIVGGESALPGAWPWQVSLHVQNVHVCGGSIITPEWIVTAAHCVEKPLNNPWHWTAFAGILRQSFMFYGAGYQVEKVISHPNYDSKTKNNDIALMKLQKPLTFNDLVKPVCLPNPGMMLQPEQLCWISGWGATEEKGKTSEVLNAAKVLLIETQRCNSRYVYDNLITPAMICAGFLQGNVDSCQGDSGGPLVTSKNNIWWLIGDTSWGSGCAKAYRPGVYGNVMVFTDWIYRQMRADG
# T4 sequence (P00742 235-488 limits assumed): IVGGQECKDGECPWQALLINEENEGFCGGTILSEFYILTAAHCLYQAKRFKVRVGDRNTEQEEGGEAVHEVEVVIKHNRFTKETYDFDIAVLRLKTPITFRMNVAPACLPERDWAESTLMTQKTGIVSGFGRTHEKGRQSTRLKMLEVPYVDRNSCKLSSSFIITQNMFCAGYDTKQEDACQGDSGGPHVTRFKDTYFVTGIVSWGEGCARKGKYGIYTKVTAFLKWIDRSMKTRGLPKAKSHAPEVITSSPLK
# T4 sequence (P00742 41-179 partner limits assumed): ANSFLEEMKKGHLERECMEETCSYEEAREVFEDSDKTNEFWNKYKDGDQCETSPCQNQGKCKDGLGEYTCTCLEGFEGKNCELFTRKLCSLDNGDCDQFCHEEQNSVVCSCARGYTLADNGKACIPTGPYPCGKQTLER
Structure (SMILES),IC50 (matriptase; read-out: Matriptase IC50) [nM],IC50 (hepsin; read-out: Hepsin IC50) [nM],IC50 (HGFA; read-out: HGFA IC50) [nM],IC50 (Thrombin) [nM],IC50 (Factor Xa) [nM],IC50 (TMPRSS2; read-out: TMPRSS2 IC50) [nM],IC50 (matriptase) [nM],IC50 (hepsin) [nM],IC50 (HGFA) [nM],"IC50 (matriptase; 30 min incubation, Boc-QAR-AMC at Km, read-out: Matriptase IC50) [nM]",IC50 (hepsin; [1]) [nM],IC50 (HGFA; [2]) [nM],IC50 (TMPRSS2; [3]) [nM],IC50 (TMPRSS2) [nM]
"N=C(N)NCCC[C@H](NC(=O)[C@H](Cc1ccccc1)NC(=O)[C@H](CCC(N)=O)NCc1ccccc1)C(=O)c1nc2ccccc2s1 [CA1022-2, N-[(S)-1-[N-(S)-1-[(1,3-benzothiazol-2-yl)carbonyl]-4-guanidinobutylcarbamoyl]-2-phenylethyl](S)-2-benzylaminoglutaramide]",2.31,0.2,50.4,> 20000,40,0.993,,,,,,,,
"CSCC[C@H](NC(C)=O)C(=O)N[C@@H](CCC(N)=O)C(=O)N[C@@H](Cc1ccccc1)C(=O)N[C@@H](CCCNC(=N)N)C(=O)c1nc2ccccc2s1 [MM3130, N-[(S)-1-[N-(S)-1-[(1,3-benzothiazol-2-yl)carbonyl]-4-guanidinobutylcarbamoyl]-2-phenylethyl](S)-2-[(S)-2-acetylamino-4-(methylthio)butyrylamino] glutaramide]",,,,> 20000,342,0.142,0.552,0.134,36.4,,,,,
"CC(=O)N[C@H]1CCCCn2cc(nn2)C[C@H](C(=O)N[C@@H](CCCNC(=N)N)C(=O)c2nc3ccccc3s2)NC(=O)[C@H](CC(C)C)NC1=O [VD4118B, N-[(S)-1-[(1,3-benzothiazol-2-yl)carbonyl]-4-guanidinobutyl]-(6S,9S,12R)-6-acetylamino-9-isobutyl-7,10-dioxo-1,8,11,15,16-pentaazabicyclo[12.2.1]heptadeca-14(17),15-diene-12-carboxamide]",,,,> 20000,9540,,,,,91.2,137,10900,14.9,
"N=C(N)NCCC[C@H](NC(=O)[C@H](Cc1ccccc1)NC(=O)OCC1c2ccccc2-c2ccccc21)C(=O)c1nc2ccccc2s1 [MF1133, (S)-1-[N-(S)-1-[(1,3-benzothiazol-2-yl)carbonyl]-4-guanidinobutylcarbamoyl]-2-phenylethyl(9H-fluoren-9-yl)methanecarbamate]",2560,2680,1930,> 20000,28.4,19.7,,,,,,,,
"CC(=O)N[C@@H](Cc1cncn1COCc1ccccc1)C(=O)N[C@@H](CCCCNC(=N)N)C(=O)N[C@@H](CCC(C)C)C(=O)N[C@H](CCCNC(=N)N)C(=O)c1nc2ccccc2s1 [JH1143-1, N-[(R)-1-[(1,3-benzothiazol-2-yl)carbonyl]-4-guanidinobutyl](S)-2-[(S)-1-[(S)-2-acetylamino-3-{1-[(benzyloxy)methyl]-5-imidazolyl}propionylamino]-5-guanidinopentylcarbonylamino]-5-methylhexanamide]",,1.92,543,4890,4800,7.54,3.02,,,,,,,
"CC(=O)N[C@@H](Cc1ccccc1)C(=O)N[C@@H](CC(C)C)C(=O)N[C@@H](Cc1ccccc1)C(=O)N[C@@H](CCCNC(=N)N)C(=O)c1nc2ccccc2s1 [ZFH7063, N-[(S)-1-[N-(S)-1-[(1,3-benzothiazol-2-yl)carbonyl]-4-guanidinobutylcarbamoyl]-2-phenylethyl](S)-2-[(S)-2-acetylamino-3-phenylpropionylamino]-4-methylvaleramide]",,,,> 20000,26,3,7.2,2.9,228,,,,,
"CN(C)[C@@H](CCC(N)=O)C(=O)N[C@@H](Cc1ccccc1)C(=O)N[C@@H](CCCNC(=N)N)C(=O)c1nc2ccccc2s1 [CA1041-2, N-[(S)-1-[N-(S)-1-[(1,3-benzothiazol-2-yl)carbonyl]-4-guanidinobutylcarbamoyl]-2-phenylethyl](S)-2-(dimethylamino)glutaramide]",3.5,1.89,609,> 20000,3300,0.86,,,,,,,,
"CC(=O)N[C@H]1Cc2ccc(cc2)Oc2cccc(c2)C[C@@H](C(=O)N[C@@H](CCCNC(=N)N)C(=O)c2nc3ccccc3s2)NC(=O)[C@H](CC(C)C)NC1=O [VD5064B, N-[(S)-1-[(1,3-benzothiazol-2-yl)carbonyl]-4-guanidinobutyl]-(9S,12S,15S)-15-acetylamino-12-isobutyl-11,14-dioxo-2-oxa-10,13-diazatricyclo[15.2.2.1^3,^7]docosa-1(19),3,5,7(22),17,20-hexaene-9-carboxamide]",90,0.168,,> 20000,955,,,,,,,61.4,11,
"CCC(C)[C@H](NC(C)=O)C(=O)N[C@@H](CCC(N)=O)C(=O)N[C@@H](C)C(=O)N[C@@H](CCCNC(=N)N)C(=O)c1nc2ccccc2s1 (stereo partly drawn) [MM3178, N-[(S)-1-[N-(S)-1-[(1,3-benzothiazol-2-yl)carbonyl]-4-guanidinobutylcarbamoyl]ethyl](S)-2-[(2S)-2-acetylamino-3-methylvalerylamino]glutaramide]",,1.25,> 20000,> 20000,170,0.227,0.1,,,,,,,
"CC(=O)N[C@H](Cc1c[nH]c2ccccc12)C(=O)N[C@@H](Cc1ccccc1)C(=O)N[C@@H](CCCNC(=N)N)C(=O)c1nc2ccccc2s1 [PK-1-89A1, N-[(S)-1-[(1,3-benzothiazol-2-yl)carbonyl]-4-guanidinobutyl](S)-2-[(R)-2-acetylamino-3-(3-indolyl)propionylamino]-3-phenylpropionamide]",2.6,1.1,27,> 20000,98,0.156,,,,,,,,
"CC(=O)N[C@@H](CCCCN)C(=O)N[C@@H](CCC(N)=O)C(=O)N[C@@H](Cc1ccccc1)C(=O)N[C@@H](CCCNC(=N)N)C(=O)c1nccs1 [ZFH6101, N-[(S)-1-[N-(S)-4-guanidino-1-[(1,3-thiazol-2-yl)carbonyl]butylcarbamoyl]-2-phenylethyl](S)-2-[(S)-1-acetylamino-5-aminopentylcarbonylamino] glutaramide]",,1.2,116,> 20000,158,28.9,1.4,,,,,,,
"N=C(N)NCCC[C@H](NC(=O)[C@H](Cc1ccccc1)NC(=O)[C@H](CCC(N)=O)NCCc1ccccc1)C(=O)c1nc2ccccc2s1 [CA1033-2, N-[(S)-1-[N-(S)-1-[(1,3-benzothiazol-2-yl)carbonyl]-4-guanidinobutylcarbamoyl]-2-phenylethyl](S)-2-(phenethylamino)glutaramide]",2.81,0.3,48.5,10200,1060,0.316,,,,,,,,
"CC(=O)N[C@@H](CO)C(=O)N[C@@H](CCCCN)C(=O)N[C@@H](CC(C)C)C(=O)N[C@@H](CCCNC(=N)N)C(=O)c1nc2ccc(C(=O)N[C@H](C(N)=O)C(C)C)cc2s1 [ZFH7116, N-[(S)-1-carbamoyl-2-methylpropyl]-2-[(S)-2-[(S)-2-[(S)-1-[(S)-2-acetylamino-3-hydroxypropionylamino]-5-aminopentylcarbonyl-amino]-4-methylvalerylamino]-5-guanidinovaleryl]-1,3-benzothiazole-6-carboxamide] (Ac-SKL[X1]V-NH2)",14,1,23,7530,514,,,,,,,,,2.5
"CSCC[C@@H]1NC(=O)[C@@H](NC(C)=O)CC(=O)NCCCC[C@@H](C(=O)N[C@@H](CCCNC(=N)N)C(=O)c2nc3ccccc3s2)NC1=O [VD3173, N-[(S)-1-[(1,3-benzothiazol-2-yl)carbonyl]-4-guanidinobutyl]-(3S,6S,14S)-6-acetylamino-3-[2-(methylthio)ethyl]-2,5,8-trioxo-1,4,9-triaza-14-cyclotetradecanecarboxamide]",1,,,18500,1390,0.401,,,,,5.9,3240,,
"CC(=O)N[C@H]1Cc2ccc(cc2)OC/C=C\C[C@@H](C(=O)N[C@@H](CCCNC(=N)N)C(=O)c2nc3ccccc3s2)NC(=O)[C@H](CC(C)C)NC1=O [VD4010, N-[(S)-1-[(1,3-benzothiazol-2-yl)carbonyl]-4-guanidinobutyl]-(4Z,7S,10S,13S)-13-acetylamino-10-isobutyl-9,12-dioxo-2-oxa-8,11-diazabicyclo[13.2.2]nonadeca-1(17),4,15,18-tetraene-7-carboxamide]",,0.17,53,> 20000,122,1.21,3.4,,,,,,,
